# Assay results as given in patent US20250353825A1, “CANNABICYCLOL DERIVATIVES AND PREPARATION METHODS THEREOF” (priority 2023, published 2025).
# Test system: MDA-MB231
# Experiment: MTS cell viability assay, MDA-MB231
# Assay type: cell-based
# Conditions: Homo sapiens, MDA-MB-231; Table 7, 72 hours; read-out: IC50 against MDA-MB231
# Protocol: Primary viability screening: (1) the synthesized compounds 3a to 13d were respectively dissolved in DMSO to prepare a 40 μg/mL cannabicyclol and cannabicyclol derivative solutions.
# (2) A control group: a 200 μL DMSO solvent.
# (3) The solutions of compounds 3a to 13d were diluted in a twofold gradient to obtain cannabicyclol and cannabicyclol derivative solutions at concentrations of 40 μg/mL, 20 μg/mL, 10 μg/mL, 5 μg/mL, 2.5 μg/mL, 1.25 μg/mL, and 0.625 μg/mL, and 0.3125 μg/mL, respectively.
# (4) Three glioblastoma stem cells (GSC-3, GSC-12, and GSC-18), three pancreatic cancer cell-derived stem cells (PANC-1-CSC, BXPC-3-CSC, and ASPC1-CSC), three liver cancer cell-derived stem cells (HepG2-CSC, MHCC97H-CSC, and SMMC7721-CSC), HEK-293T cells, 16 tumor cells (U251, U87, T98G, PANC1, BXPC3, ASPC1, HepG2, MHCC97H, SMMC7721, PC3, SKOV3, MDA-MB231, A549, HCT116, HEC-1B, MKN28), and differentiated glioblastoma stem cells (GSC-3diff and GSC-12diff) derived from GSC-3 and GSC-12 (all of the cells were provided by the Laboratory of Tumor Animal Model Preparation and Application Research, West China Hospital, Sichuan University) were inoculated into a 96-well plate at a concentration of 2×10^4 cells/well, and 100 μL of culture medium was then added to each well; […]
# (10) The absorbance value at 490 nm was measured on an enzyme labeling apparatus, and the IC50 value was calculated.
smiles,measurement,value
"CCCCCc1cc(O)c2c(c1)OC1(C)CCC3C1C2C3(C)C (stereo not shown) [Compound 3a, cannabicyclol]",IC50,> 40 µg/mL
